Assay [1] deals with Pseudomonas aeruginosa. Description: Broth two-fold serial dilution MIC test. The class given is cell-based, Pseudomonas aeruginosa (ATCC 15442). In short, it runs like this: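 Broth two-fold serial dilution MIC (500 to 0.25 ppm) was run against Pseudomonas aeruginosa, with compound from 1% stock in acetone/methanol/water 5:3:2. Vessels inoculated with standardized broth-grown cells were incubated, then scored for growth. MIC is the lowest concentration giving complete growth inhibition.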

Assay [2] concerns Escherichia coli. Put plainly: Broth two-fold serial dilution MIC test. The class given is cell-based, Escherichia coli (ATCC 11229). The settings on record: Table 2, Ecol. A digest of the protocol: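 Broth two-fold serial dilutions ran from 500 down to 0.25 ppm, prepared from a stock in acetone/methanol/water (5:3:2). Each tube received a standardized bacterial suspension and was incubated at a temperature suited to the species. MIC is the lowest concentration giving complete growth inhibition.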

The test system of assay [3] is Staphylococcus aureus. Put plainly: Broth two-fold serial dilution MIC test. The class given is cell-based, Staphylococcus aureus (ATCC 6538). A digest of the protocol:
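Broth two-fold serial dilution from 500 ppm down to 0.25 ppm, compound delivered from acetone/methanol/water stock, inoculated with standardized cell suspension and incubated at an organism-appropriate temperature. MIC is the lowest concentration giving complete growth inhibition.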

Assay [4] has as its system Aspergillus niger. Description: Broth two-fold serial dilution MIC test. The class given is cell-based, Aspergillus niger (ATCC 6275). A digest of the protocol: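 Two-fold broth serial dilution from 500 ppm down to 0.25 ppm, compound stock in acetone/methanol/water 5:3:2. Vessels inoculated with standardized spore suspension harvested from agar slants, incubated at a species-appropriate temperature, then scored for growth/no growth. MIC is the lowest concentration giving complete growth inhibition.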

For assay [5], the system named is Enterobacter aerogenes. Description: MIC test, side-by-side comparison. The class given is cell-based. The conditions noted are these: Klebsiella aerogenes, Table 4 side-by-side; E. Aerogenes. The source says:
(§1) A minimum inhibitory concentration (MIC) value is obtained using a broth, two-fold serial dilution test performed as follows: A stock solution or dispersion of the test compound, typically at a concentration of 1%, is made in a 5:3:2 solvent solution of acetone. methanol, and water. A volume of the stock solution is dispensed into culture media to give an initial starting test concentration of 500 ppm compound.
(§2) When the test is ready to be done, each vessel in the dilution series, except the first vessel, contains an equal volume of compound free broth. The first vessel contains twice the volume of broth with the starting concentration of test compound. One half of the broth from the first vessel is transferred to the second vessel- After being mixed, one half the resulting volume is removed from the second vessel and transferred to the third vessel. The entire cycle is repeated sufficiently to give a series of concentrations amounting to 500, 250, 125, 63, 31, 16, 8, and 4, 2, 1, 0.5, 0.25 ppm respectively.
(§3) Each vessel is then inoculated with a cell suspension of the appropriate test organism. Bacteria are grown in broth, fungi on agar slants for a time and at a temperature appropriate to the species being tested, and algae are a mixture of green algae and blue-green bacteria grown in a nutrient media. At the end of the growth period, in the case of bacteria, the broth is vortexed to disperse the cells.
(§4) In the case of fungi, the spores are harvested by pipetting water onto the slant and dislodging the spores with a sterile loop. The cell/spore suspension is standardized by controlling incubation time, temperature, and the volume of the diluent. The suspension is then used to inoculate the vessels containing the broth compound.
(§5) The vessels are then incubated at the appropriate temperature. After the incubation, the vessels are examined for growth/no growth. The minimum inhibitory concentration (MIC) is defined as the lowest concentration of compound that results in complete inhibition of growth of the test organism.
(§6) These five compounds were tested side-by-side against six organisms, Pseudomonas aeruginosa (P. aeruginosa), Klebsiella pneurnoniae (K. pneumoniae), Enterobacter aerogenes (E. aerogenes), Proteus mirabilis (P. mirabilis), Staphylococcus aureus (S. aureus), and Aspergillus niger (A. niger). The MIC tests were performed as in example 6.

Assay [6] has as its system Klebsiella pneurnoniae. Put plainly: MIC test, side-by-side comparison. The settings on record: read-out: MIC Values. The class given is cell-based.
Description: as §1, §2, §3, §4, §5, §6

For assay [7], the system named is Proteus mirabilis. Put plainly: MIC test, side-by-side comparison. In kind it is cell-based. The conditions noted are these: Proteus mirabilis; Table 4 side-by-side; P. mirabilis.
Description: as §1, §2, §3, §4, §5, §6

[8] abbreviates: Pseudomonas aeruginosa, Table 4 side-by-side, P. aeruginosa, read-out: MIC Values.
The mark [9] stands for this setting: Staphylococcus aureus, Table 4 side-by-side, S. aureus, read-out: MIC Values.
Where [10] appears, read: Aspergillus niger, Table 4 side-by-side, A. niger, read-out: MIC Values.
The mark [11] stands for this setting: Pseudomonas aeruginosa, Table 2, Psae, M9G media, read-out: MIC.
[12] abbreviates: Pseudomonas aeruginosa, Table 2, Psae, TSB media, read-out: MIC.
Setting [13] is: Escherichia coli, M9G media, read-out: MIC.
The mark [14] stands for this setting: Escherichia coli, TSB media, read-out: MIC.
[15] abbreviates: Staphylococcus aureus, Table 2, Saur, M9G media, read-out: MIC.
The mark [16] stands for this setting: Staphylococcus aureus, Table 2, Saur, TSB media, read-out: MIC.
Where [17] appears, read: Aspergillus niger, Table 2, Anig, TSB media, read-out: MIC.

This note sets out measurements from US5354862A, “Preparation and the use of halopropargylated cyclic quaternary ammonium compounds as antimicrobial agents” (Rohm and Haas Company, priority 1993, dated 1994).

≈ marks a conversion by molar mass, not a printed value. Where two headings read alike, the source gives them in different places. Some results are limits rather than exact numbers.

As to `CCCCCCCCCCCCCC[N+]1(CC#CI)CCCCC1` [Compound 25, 1-(tetradecyl)-1-(3-iodopropargyl)-piperidinium 4-methylbenzenesulfonate], the MIC turned out to be 8 µg/mL in assay [1] (setting [8]); 8 ppm in assay [1] (Table 2, Psae, M9G media); 2 ppm in assay [1] (Table 2, Psae, TSB media); 2 ppm in assay [2] (M9G media); 16 ppm in assay [2] (TSB media); 0.5 µg/mL in assay [3] (setting [9]). In addition, the MIC in assay [3] (Table 2, Saur, M9G media) is 0.25 ppm; in assay [3] (Table 2, Saur, TSB media), 0.25 ppm; in assay [4] (setting [10]), 8 µg/mL; in assay [4] (Table 2, Anig, TSB media), 8 ppm; in assay [5] it was 1 µg/mL; in assay [6] it was 4 µg/mL. This molecule gave an MIC in assay [7] of 4 µg/mL.

Take `CCCCCCCCCCCCCC[N+]1(CC#CI)CCOCC1` [Compound 41, 4-tetradecyl-4-(3-iodoprolyargyl)-morpholinium benzenesulfonate]: the MIC in assay [1] (setting [8]) is 8 µg/mL; in assay [1] (Table 2, Psae, M9G media), 2 ppm; in assay [1] (Table 2, Psae, TSB media), 4 ppm; in assay [2] (M9G media) it was less than 0.25 ppm; in assay [2] (TSB media), less than 0.25 ppm; in assay [3] (setting [9]), 0.5 µg/mL. In addition, the MIC is less than 0.25 ppm in assay [3] (Table 2, Saur, M9G media); 0.5 ppm in assay [3] (Table 2, Saur, TSB media); 8 µg/mL in assay [4] (setting [10]); 2 ppm in assay [4] (Table 2, Anig, TSB media); 2 µg/mL in assay [5]; 4 µg/mL in assay [6]. In assay [7], this molecule showed an MIC of 4 µg/mL.

`CCCCCCCCCCCCC[N+]1(CC#CI)CCOCC1` [Compound 89, 4-tridecyl-4-(3-iodopropargyl)-morpholinium methanesulfonate]: the MIC in assay [1] (setting [11]) is 16 µg/mL; in assay [1] (setting [12]), 64 µg/mL; in assay [2] (setting [13]), 2 µg/mL; in assay [2] (setting [14]), 8 µg/mL; in assay [3] (setting [15]), 1 µg/mL; in assay [3] (setting [16]), 2 µg/mL. The MIC in assay [4] (setting [17]) worked out at 8 µg/mL.

In the case of `CCCCCCCCCCCC[N+]1(CC#CI)CCOCC1` [Compound 90, 4-dodecyl-4-(3-iodopropargyl)-morpholinium methanesulfonate], the MIC was 16 µg/mL in assay [1] (setting [11]); 125 µg/mL in assay [1] (setting [12]); 2 µg/mL in assay [2] (setting [13]); 4 µg/mL in assay [2] (setting [14]); 2 µg/mL in assay [3] (setting [15]); 4 µg/mL in assay [3] (setting [16]). In addition, the MIC in assay [4] (setting [17]) was determined as 16 µg/mL.

On to `CCCCCCCCCC[N+]1(CC#CI)CCOCC1` [Compound 91, 4-decyl-4-(3-iodopropargyl)-morpholinium methanesulfonate], for which the MIC was 250 µg/mL in assay [1] (setting [11]); more than 500 µg/mL in assay [1] (setting [12]); 4 µg/mL in assay [2] (setting [13]); 8 µg/mL in assay [2] (setting [14]); 1 µg/mL in assay [3] (setting [15]); 8 µg/mL in assay [3] (setting [16]). The MIC in assay [4] (setting [17]) came out at 32 µg/mL.

Take `CCCCCCCC[N+]1(CC#CI)CCOCC1` [Compound 92, 4-n-octyl-4-(3-iodopropargyl)-morpholinium methanesulfonate]: the MIC in assay [1] (setting [11]) was more than 500 µg/mL; in assay [1] (setting [12]), more than 500 µg/mL; in assay [2] (setting [13]) it was 32 µg/mL; in assay [2] (setting [14]), 64 µg/mL; in assay [3] (setting [15]) it was 8 µg/mL; in assay [3] (setting [16]), 16 µg/mL. In addition, the MIC in assay [4] (setting [17]) worked out at 125 µg/mL.

In the case of `CCCC[N+]1(CC#CI)CCOCC1` [Compound 93, 4-n-butyl-4-(3-iodopropargyl)-morpholinium methanesulfonate], the MIC in assay [1] (setting [11]) is more than 500 µg/mL; in assay [1] (setting [12]), more than 500 µg/mL; in assay [2] (setting [13]), 125 µg/mL; in assay [2] (setting [14]) it was 125 µg/mL; in assay [3] (setting [15]), more than 500 µg/mL; in assay [3] (setting [16]), more than 500 µg/mL. The MIC in assay [4] (setting [17]) came out at 500 µg/mL.

On to `CC[N+]1(CC#CI)CCOCC1` [Compound 94, 4-ethyl-4-(3-iodopropargyl)-morpholinium methanesulfonate], for which the MIC in assay [1] (setting [11]) was more than 500 µg/mL; in assay [1] (setting [12]), more than 500 µg/mL; in assay [2] (setting [13]) it was 125 µg/mL; in assay [2] (setting [14]) it was 125 µg/mL; in assay [3] (setting [15]), 500 µg/mL; in assay [3] (setting [16]), more than 500 µg/mL. The MIC in assay [4] (setting [17]) was more than 500 µg/mL.

`CCCCCCCCCCOC(=O)CC[N+]1(CC#CI)CCOCC1` [Compound 95, 4-[2-(decyloxycarbonyl)]ethyl-4-(3-iodopropargyl)-morpholinium methanesulfonate]: the MIC in assay [1] (setting [11]) was determined as 500 µg/mL; in assay [1] (setting [12]), 500 µg/mL; in assay [2] (setting [13]), 16 µg/mL; in assay [2] (setting [14]), 64 µg/mL; in assay [3] (setting [15]) it was 32 µg/mL; in assay [3] (setting [16]), 64 µg/mL. Moreover, in assay [4] (setting [17]), the MIC stood at 32 µg/mL.

Consider `CCCCCCCCCCOC(=O)CC[N+]1(CC#CI)CCOCC1` [Compound 96], for which the MIC in assay [1] (Table 2, Psae, M9G media) is 500 ppm; in assay [1] (Table 2, Psae, TSB media), more than 500 ppm; in assay [2] (M9G media), 8 ppm; in assay [2] (TSB media), 64 ppm; in assay [3] (Table 2, Saur, M9G media) it was 32 ppm; in assay [3] (Table 2, Saur, TSB media), 64 ppm. Also, the MIC in assay [4] (Table 2, Anig, TSB media) was found to be 16 ppm.

Turning to `CCCCCCCCCCOC(=O)CC[N+]1(CC#CI)CCCC1` [Compound 97, 1-[2-(decyloxycarbonyl)]ethyl-1-(3-iodopropargyl)-pyrrolidinium 4-methylbenzenesulfonate], the MIC in assay [1] (setting [11]) came out at 250 µg/mL; in assay [1] (setting [12]) it was 500 µg/mL; in assay [2] (setting [13]), 16 µg/mL; in assay [2] (setting [14]), 32 µg/mL; in assay [3] (setting [15]), 8 µg/mL; in assay [3] (setting [16]), 16 µg/mL. In assay [4] (setting [17]), the MIC is 16 µg/mL.

With `CCCCCCCCCCOC(=O)CC[N+]1(CC#CI)CCCC1` [Compound 98, l-[2-(decyloxycarbonyl)]ethyl-1-(3-iodopropargyl)-pyrrolidinium methanesulfonte], the MIC stood at 500 ppm in assay [1] (Table 2, Psae, M9G media); 500 ppm in assay [1] (Table 2, Psae, TSB media); 16 ppm in assay [2] (M9G media); 32 ppm in assay [2] (TSB media); 8 ppm in assay [3] (Table 2, Saur, M9G media); 32 ppm in assay [3] (Table 2, Saur, TSB media). Moreover, the MIC in assay [4] (Table 2, Anig, TSB media) is 16 ppm.

For `IC#CCN1CCCCC1` [Compound J1, N-(3-iodo-2-propynyl)-piperidine, reference compound], the MIC in assay [1] (setting [8]) was more than 500 µg/mL; in assay [3] (setting [9]), 125 µg/mL (≈ 502 µM); in assay [4] (setting [10]) it was 16 µg/mL (≈ 64.2 µM); in assay [5] it was 32 µg/mL (≈ 128 µM); in assay [6], 125 µg/mL (≈ 502 µM); in assay [7], 125 µg/mL (≈ 502 µM).

In the case of `IC#CCN1CCOCC1` [Compound J2, N-(3-iodo-2-propynyl)-morpholine, reference compound], the MIC in assay [1] (setting [8]) is more than 500 µg/mL; in assay [3] (setting [9]), 250 µg/mL (≈ 996 µM); in assay [4] (setting [10]), 8 µg/mL (≈ 31.9 µM); in assay [5], 250 µg/mL (≈ 996 µM); in assay [6] it was 500 µg/mL (≈ 1990 µM); in assay [7], 500 µg/mL (≈ 1990 µM).
